Reference: patent publication US11518758B2, “Heteroarylaminopyrimidine amide autophagy inhibitors and methods of use thereof” (Deciphera Pharmaceuticals, LLC, priority 2019, dated 2022)

Tests used:
[1] = system: phospho-Serine 318 ATG13 (pATG13) in HCT-116 cells; assay: pATG13 levels of mutant KRas HCT-116 cells after treatment with ULK inhibitors in combination with trametinib (ELISA); type: cell-based, human
Experimental: Example 179. pATG13 Levels of Mutant KRas HCT-116 Cells after Treatment with ULK Inhibitors in Combination with Trametinib
HCT-116 human colon cancer cells (10000 cells/well) were added to a 384-well tissue-culture treated plate in 50 μL of pre-warmed DMEM medium supplemented with 10% characterized fetal bovine serum (Invitrogen, Carlsbad, Calif.), 100 units/mL penicillin G, and 100 μg/mL streptomycin and allowed to grow overnight at 37° C., 5% CO2, and 95% humidity. The following day, 10 μL of media containing trametinib or DMSO as a control was added to wells. The final concentration of trametinib in wells was 250 nM. A dose response of a test compound (0.6 μL per well) was added. DMSO (0.6 μL) was added to control wells. The plate was briefly shaken to mix wells and then incubated at 37° C. overnight. The next day, the media was aspirated and cells were washed with Dulbecco's Phosphate Buffered Saline (Gibco). Cells were lysed using MPER lysis buffer (Pierce, Rockford, Ill.) containing Halt Phosphatase and Protease Inhibitors (Pierce, Rockford, Ill.) and Phosphatase inhibitor cocktail 2 (Sigma, St. Louis, Mo.) at 4° C. for 10 minutes with shaking.
(§1) Cellular levels of phospho-Serine 318 ATG13 (pATG13) were measured via an ELISA method. Total ATG13 Antibody (Cell Signaling Cat #13273) was used to coat the wells. The plate was incubated at 4° C. overnight and washed with ELISA wash buffer (Biolegend Cat #421601). The wells were then blocked with assay diluent (Biolegend Cat #421203) for 1 hour at room temperature. Plate wells were washed with ELISA wash buffer. Cell lysate was added to wells and incubated at room temperature for 2 hours. Plate wells were washed with ELISA wash buffer. Biotinylated pS318-ATG13 antibody (Rockland Immunochemicals Cat #600-401-C49) was diluted in assay diluent and added to each well and incubated at room temperature for 1 hour. Plate wells were washed with ELISA wash buffer. Streptavidin linked to horseradish peroxidase (Thermo Fisher Cat #21140) was diluted in assay diluent and added to each well and incubated at room temperature for 1 hour. Plate wells were washed with ELISA wash buffer. High sensitivity TMB substrate (Biolegend Cat #421101) was added to each well and incubated at room temperature for 20 minutes. The reaction was stopped with 2N Sulfuric Acid. The plate was analyzed at on a plate reader measuring absorbance at 450 nm and 540 nm (background). Signal was calculated by first subtracting the background absorbance at 540 nm from the absorbance at 450 nm for each well. Next, the background corrected absorbance at 450 nm from blank wells was subtracted from test wells. Data was compared to control wells to determine % ATG13 phosphorylation. GraphPad Prism was used to calculate IC50 values.

[2] = target: T1, ULK2 kinase (Homo sapiens, UniProt Q8IYT8); assay: Biochemical assay for ULK2 (coupled pyruvate kinase/lactate dehydrogenase assay); conditions: 9.7 nM ULK2 (Eurofins), myelin basic protein, 1 mM ATP; read-out: ULK2.2
T1 construct: purchased Eurofins 14-772
In short: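 Continuous PK/LDH-coupled NADH-oxidation assay with 9.7 nM ULK2, 0.25 mg/mL myelin basic protein and 1 mM ATP in Tris pH 7.5, MgCl2, DTT buffer, 1% DMSO. A340 followed 6 h at 30° C; rates from 2-3 h window converted to % inhibition, IC50 from four-parameter fit.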

[3] = system: phospho-Serine 318 ATG13 (pATG13) in A375 cells; assay: pATG13 levels of mutant BRAF A375 cells after treatment with ULK inhibitors in combination with trametinib (ELISA); type: cell-based, human
Experimental: Example 180. pATG13 Levels of Mutant BRAF A375 Cells after Treatment with ULK Inhibitors in Combination with Trametinib
(§2) A375 human malignant melanoma cancer cells (20000 cells/well) were added to a 96-well tissue-culture treated plate in 100 μL of pre-warmed DMEM medium supplemented with 10% characterized fetal bovine serum (Invitrogen, Carlsbad, Calif.), 100 units/mL penicillin G, and 100 μg/mL streptomycin and allowed to grow overnight at 37° C., 5% CO2, and 95% humidity. The following day, 100 μL of media containing trametinib or DMSO as a control was added to wells. The final concentration of trametinib in wells was 250 nM. A dose response of a test compound (0.5 μL per well) was added. DMSO (0.5 μL) was added to control wells. The plate was briefly shaken to mix wells and then incubated at 37° C. overnight. The next day, the media was aspirated and cells were washed with Dulbecco's Phosphate Buffered Saline (Gibco). Cells were lysed using MPER lysis buffer (Pierce, Rockford, Ill.) containing Halt Phosphatase and Protease Inhibitors (Pierce, Rockford, Ill.) and Phosphatase inhibitor cocktail 2 (Sigma, St. Louis, Mo.) at 4° C. for 10 minutes with shaking.
as §1

[4] = system: phospho-Serine 318 ATG13 (pATG13) in T24 cells; assay: pATG13 levels of mutant HRas T24 cells after treatment with ULK inhibitors in combination with trametinib (ELISA); type: cell-based, human; conditions: with 250 nM trametinib
Experimental: Example 181. pATG13 Levels of Mutant HRas T24 Cells after Treatment with ULK Inhibitors in Combination with Trametinib
as §2, with “T24” for “A375”, “urinary bladder” for “malignant melanoma”, “(25000” for “(20000”
as §1

T1 sequence (Q8IYT8 with tags, fused parts or gaps): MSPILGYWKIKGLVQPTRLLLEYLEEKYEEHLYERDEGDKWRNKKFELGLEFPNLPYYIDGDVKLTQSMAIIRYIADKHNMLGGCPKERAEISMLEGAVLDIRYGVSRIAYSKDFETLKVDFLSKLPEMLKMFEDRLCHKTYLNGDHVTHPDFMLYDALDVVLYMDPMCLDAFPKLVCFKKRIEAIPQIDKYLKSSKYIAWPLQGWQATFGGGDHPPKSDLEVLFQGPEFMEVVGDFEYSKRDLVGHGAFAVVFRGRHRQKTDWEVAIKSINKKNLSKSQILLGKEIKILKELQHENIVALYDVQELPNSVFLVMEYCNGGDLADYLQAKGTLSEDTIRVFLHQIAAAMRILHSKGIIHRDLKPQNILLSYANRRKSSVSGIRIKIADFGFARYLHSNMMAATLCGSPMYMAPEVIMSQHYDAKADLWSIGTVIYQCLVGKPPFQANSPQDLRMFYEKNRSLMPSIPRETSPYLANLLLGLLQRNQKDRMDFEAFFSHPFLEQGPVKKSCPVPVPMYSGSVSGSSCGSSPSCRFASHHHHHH

Row | Structure (SMILES) | IC50 [1] | IC50 [2] | IC50 [3] | IC50 [4]
1 | CC(C)N1CCC(n2cc(Nc3ncc(C(F)(F)F)c(NCCCN4CCCCC4=O)n3)cn2)CC1 [Example 6] | 0.1 to 0.3 µM | 0.025 to 0.1 µM | – | –
2 | Cc1nn(C2CCN(C)CC2)cc1Nc1ncc(C(F)(F)F)c(NCCCN2CCCCC2=O)n1 [Example 8] | – | 0.025 to 0.1 µM | 0.01 to 0.1 µM | 0.01 to 0.1 µM
3 | Cc1nn(C2CCN(C(C)C)CC2)cc1Nc1ncc(C(F)(F)F)c(NCCCN2CCCCC2=O)n1 [Example 15] | 0.01 to 0.1 µM | 0.1 to 0.5 µM | 0.01 to 0.1 µM | 0.01 to 0.1 µM
4 | Cc1nn([C@@H]2CCN(C)C2)cc1Nc1ncc(C(F)(F)F)c(NCCCN2CCCCC2=O)n1 [Example 18] | – | 0.025 to 0.1 µM | 0.01 to 0.1 µM | 0.1 to 0.3 µM
5 | Cc1nn(CCN(C)C)cc1Nc1ncc(C(F)(F)F)c(NCCCN2CCCCC2=O)n1 [Example 21] | 0.1 to 0.3 µM | 0.1 to 0.5 µM | – | –
6 | CN(C)CCn1cc(Nc2ncc(C(F)(F)F)c(NCCCN3CCCCC3=O)n2)cn1 [Example 32] | 0.01 to 0.1 µM | 0.1 to 0.5 µM | – | 0.01 to 0.1 µM
7 | CCc1nn(C2CCN(C)CC2)cc1Nc1ncc(Br)c(NCCCN2CCCCC2=O)n1 [Example 53] | 0.01 to 0.1 µM | 0.1 to 0.5 µM | 0.1 to 0.3 µM | –
8 | Cc1nn([C@H]2CCN(C)C2)cc1Nc1ncc(Br)c(NCCCN2CCCCC2=O)n1 [Example 61] | 0.01 to 0.1 µM | 0.1 to 0.5 µM | 0.01 to 0.1 µM | –
9 | CCN1CC[C@H](n2cc(Nc3ncc(Br)c(NCCCN4CCCCC4=O)n3)c(C)n2)C1 [Example 64] | – | > 0.5 µM | – | –
10 | Cc1nn(C2CCN(C(C)C)CC2)cc1Nc1ncc(C(F)(F)F)c(NCCCN2CCCOC2=O)n1 [Example 68] | 0.01 to 0.1 µM | 0.1 to 0.5 µM | 0.1 to 0.3 µM | 0.1 to 0.3 µM
11 | Cc1nn(C2CCN(C)CC2)cc1Nc1ncc(C(F)(F)F)c(NCCCN2CCCCCC2=O)n1 [Example 79] | 0.01 to 0.1 µM | 0.001 to 0.025 µM | – | –
12 | Cc1nn(CCCN2CCOCC2)cc1Nc1ncc(C(F)(F)F)c(NCCCN2CCCCCC2=O)n1 [Example 100] | 0.1 to 0.3 µM | 0.1 to 0.5 µM | – | 0.1 to 0.3 µM
13 | Cc1nn(C2CCN(C)CC2)cc1Nc1ncc(C(F)(F)F)c(NCCCN2CCCOCC2=O)n1 [Example 102] | 0.01 to 0.1 µM | 0.025 to 0.1 µM | – | –
14 | Cc1nn(C2CCN(C)CC2)cc1Nc1ncc(Cl)c(NCCCN2CCCOCC2=O)n1 [Example 105] | 0.1 to 0.3 µM | > 0.5 µM | – | 0.1 to 0.3 µM
15 | Cc1nn([C@@H]2CCN(C)C2)cc1Nc1ncc(C(F)(F)F)c(NCCCN2CCCOCC2=O)n1 [Example 106] | 0.01 to 0.1 µM | 0.1 to 0.5 µM | – | –
16 | CCN1CCC(n2cc(Nc3ncc(C(F)(F)F)c(NCCCN4CCCOCC4=O)n3)c(C)n2)CC1 [Example 107] | 0.01 to 0.1 µM | 0.1 to 0.5 µM | – | –
17 | Cc1nn(C2CCN(C(C)C)CC2)cc1Nc1ncc(C(F)(F)F)c(NCCCN2CCCOCC2=O)n1 [Example 108] | 0.1 to 0.3 µM | > 0.5 µM | – | –
18 | Cc1nn(C2CCN(C)CC2)cc1Nc1ncc(C(F)(F)F)c(NCCCN2CCOCCC2=O)n1 [Example 127] | 0.1 to 0.3 µM | 0.1 to 0.5 µM | 0.01 to 0.1 µM | 0.01 to 0.1 µM
19 | CCN1CCC(n2cc(Nc3ncc(C(F)(F)F)c(NCCCN4CCOCCC4=O)n3)c(C)n2)CC1 [Example 130] | 0.01 to 0.1 µM | 0.1 to 0.5 µM | – | –
20 | Cc1nn(C2CCN(C(C)C)CC2)cc1Nc1ncc(C(F)(F)F)c(NCCCN2CCOCCC2=O)n1 [Example 131] | 0.1 to 0.3 µM | > 0.5 µM | – | –
